Entries after “also recorded” stand apart in the source; their conditions may differ.

For data set [1], the system named is SOST expression. Briefly: BMP-6 induction of SOST expression in hMSC cells with test compounds (RT-PCR). In kind it is cell-based, human. The following applies: for Results (effect on BMP-6 induction of SOST expression): BMP-6, 72 hrs, compound at 1 × 10^−7 M. As to the method: The previous example illustrates that SOST expression was enhanced by bone morphogenetic proteins and modulated by steroids such as dexamethasone. In this example, human MSC cells were incubated with bone morphogenetic proteins in the presence of various test agents to determine whether other steroids and compounds could affect the BMP-induction of SOST. SOST expression was monitored by reverse transcriptase polymerase chain reaction (RT-PCR).
Human mesenchymal cells (hMSCs) were plated in regular growth media containing 2% FCS and treated with BMP-6 either alone or in combination with the test compounds. The cells were harvested 72 hrs later and RNA was prepared for RT-PCR analysis of SOST expression.

The subject of data set [2] is SOST expression. Briefly: SOST expression in hMSC cells and primary human osteoblasts treated with growth factors and hormones (RT-PCR). In kind it is cell-based. The following applies: 72 hrs; for SOST expression, factor alone: hMSC cells (and primary human osteoblasts), RT-PCR; for SOST expression, steroid added in combination with BMP-4 versus BMP-4 alone: hMSC cells, vit D 10^−7M, RA 10^−6M, DEX 10^−7M. How it is done: (§1) As immature osteoblasts differentiate and become capable of mineralization, they express markers associated with the osteoblast phenotype (type I collagen and parathyroid hormone receptor (PTHr)). These markers were used to ascertain whether differentiation had occurred so that the influence of growth factors and hormones could be correlated with the stage differentiation as well as the level of SOST expression.
(§2) Human mesenchymal cells and primary human osteoblasts were plated in regular growth media containing 2% FCS at a density of 10,000 cells 1 cm^2. Test reagents (10^−7 M dexamethasone, 10^−6 M retinoic acid, 10 ng/ml TGF-β1, PTH (10^−8 M), 10 or 50 ng/ml IGF-1, 10^−7 M1,25-dihydroxyvitamin D3, and 50 to 300 ng/ml of bone morphogenetic proteins 2, 4 or 6) were added singly or in combination on the following day.

For a further data set, the system named is gremlin expression. As to the kind of experiment: gremlin expression in hMSC cells treated with BMPs and steroids (RT-PCR). In kind it is cell-based, human. As to conditions: 72 hrs; for BMP-4 induced gremlin expression, steroid added with BMP-4: BMP-4 100 ng/ml; for gremlin expression, factor alone: RT-PCR. How it is done:
as §1, §2

A further data set concerns noggin expression. As to the kind of experiment: noggin expression in hMSC cells treated with BMPs and steroids (RT-PCR). In kind it is cell-based, human. As to conditions: 72 hrs. As to the method: as §1, §2
For a further data set, the system named is PTHr expression. Briefly: PTHr expression in hMSC cells treated with factors (RT-PCR). In kind it is cell-based, human. As to conditions: 72 hrs, IGF-1 at 50 ng/ml, DEX 10^−7M. The source says:
In this example, the effect of growth factors and hormones on SOST expression in hMSC cells or primary human osteoblasts was observed using RT-PCR. […] As immature osteoblasts differentiate and become capable of mineralization, they express markers associated with the osteoblast phenotype (type I collagen and parathyroid hormone receptor (PTHr)). These markers were used to ascertain whether differentiation had occurred so that the influence of growth factors and hormones could be correlated with the stage differentiation as well as the level of SOST expression.
Human mesenchymal cells and primary human osteoblasts were plated in regular growth media containing 2% FCS at a density of 10,000 cells 1 cm^2. Test reagents (10^−7 M dexamethasone, 10^−6 M retinoic acid, 10 ng/ml TGF-β1, PTH (10^−8 M), 10 or 50 ng/ml IGF-1, 10^−7 M1,25-dihydroxyvitamin D3, and 50 to 300 ng/ml of bone morphogenetic proteins 2, 4 or 6) were added singly or in combination on the following day. Cultures were continued for 24 to 120 hrs after which the cells were harvested for RNA isolation.

Data set [3] deals with alkaline phosphatase (ALP) activity in hMSC cells. As to the kind of experiment: alkaline phosphatase activity in differentiating hMSC cells. In kind it is cell-based, human. As to conditions: hMSC cells, Osteoblast-Inducing media, 7 days. How it is done:
hMSC cells were plated in 96-well tissue culture dishes at a density of 10,000 cells/cm^2 in Osteoblast-Inducing medium. Partially purified preparations of baculovirus-expressed sclerostin protein were prepared in sterile PBS using NAP-5 columns prior to use. Human sclerostin protein (0 to 30 μg/ml) or an equal volume of Sf9 conditioned media (Control) was added to cultures of hMSC cells at various times after plating (1 day, 8 days, 15 days, or 21 days). The effects of sclerostin on osteoblastic differentiation were assessed by measuring alkaline phosphatase activity (ALP, determined in cell layers using DEAA buffer (Pierce) containing 0.5% NP-40 and 10 mM p-nitrophenylphosphate), synthesis of collagen type I (Prolagen C ELISA), and calcium deposition for mineralization (colorimetric assay of acid lysates of cell layers, Sigma).

Data set [4] relates to BMP-6 stimulated alkaline phosphatase activity. Briefly: BMP-6 stimulated alkaline phosphatase activity in mouse mesenchymal C3H10T1/2 cells. In kind it is cell-based. As to the method:
C3H10T1/2 cells (ATCC Deposit No. CCL-226) were plated in 96-well dishes at a density of 25,000 cells per well in complete growth medium (DMEM with high glucose and glutamine supplemented with 10% FCS, 1% penicillin/streptomycin, 0.1 mM non-essential amino acids, 1 mM sodium pyruvate, 55 μM β-mercaptoethanol, and 20 mM HEPES, pH 7.3). C3H10T1/2 cells were used in a short-term (72 hr) assay to determine the effects of human sclerostin protein on BMP-induced ALP activity. Partially purified preparations of bacculovirus-expressed sclerostin protein were prepared in sterile PBS using NAP-5 columns prior to use. Sclerostin protein (0 to 50 μg/ml) or an equal volume of Sf9 conditioned media (control) was pre-incubated with 500 ng/ml BMP-6 for 1 hr prior to addition to cells. For comparison, similar incubations were carried out with anti-BMP-6 antibody and noggin. Cells were harvested 72 hrs later for determination of ALP activity.
To test the specificity of the sclerostin effect, human sclerostin that was synthesized with a FLAG tag, was pre-incubated for 2 hrs at 4° C. with an anti-FLAG antibody coupled to agarose beads. The mixture was then spun down at 10,000×g for 15 minutes at 4° C. and the supernatant treated as “sclerostin protein” in the above assay.

The subject of data set [5] is caspase activity in hMSC cells. As to the kind of experiment: apoptosis of hMSC cells by caspase activity (Homogeneous Caspase ELISA). In kind it is cell-based, human. The following applies: for apoptosis of hMSC cells (caspase activity), rat versus human sclerostin: 24 hrs. As to the method: Human mesenchymal (hMSC) cells were plated in Osteoblast-inducing media (Biowhittaker's MSCGM medium supplemented with 100 nM dexamethasone, 50 μg/ml ascorbic acid, and 10 mM β-glycerophosphate) at a density of 10,000 cells/cm^2 in 96-well dishes.
For apoptosis assays, cells were treated with sclerostin or commercially available preparations of the BMP antagonists noggin, chordin, gremlin or twisted gastrulation (Tsg) for 24 hours prior to assay for caspase activity. In some experiments, cells were treated for various times with a partially purified preparation of baculovirus-expressed human sclerostin (0 to 30 μg/ml) or an equal volume of a protein preparation purified from Sf9 conditioned media (control) in the absence or presence of Calbiochem's caspase inhibitors. Cells were harvested and processed for apoptosis assays using the Homogeneous Caspase ELISA (Roche) or Cell Death (Histone-Associated DNA Fragmentation, Roche).
A general note: ELISA stands for enzyme-linked immunosorbent assay.

Data set [6] relates to alkaline phosphatase (ALP) activity in hMSC cells. As to the kind of experiment: alkaline phosphatase activity in differentiating hMSC cells. In kind it is cell-based, human. As to conditions: sclerostin 10 μg/ml and increasing amounts of BMP-6.

In the case of `C[C@@H]1C[C@H]2[C@@H]3CCC4=CC(=O)C=C[C@]4(C)[C@@]3(F)[C@@H](O)C[C@]2(C)[C@@]1(O)C(=O)CO` [Dexamethasone, dexamethasone, reference compound], the “induction of SOST expression by BMP-6 (BMP-induced SOST expression)” value with SOST expression [1] (72 hrs, no single concentration stated in the sentence) is recorded as “blocks”. Further, in the data set on SOST expression [1], the “Results (effect on BMP-6 induction of SOST expression)” value is on record as “blocked; also recorded: Inhibition”. The “Results (effect on BMP-6 induction of SOST expression)” value in the data set with SOST expression [1] (listed as DEX) is listed as “blocked”. Also, in the data set on SOST expression [2], the “SOST expression, factor alone” value is “no effect” and the “SOST expression, steroid added in combination with BMP-4 versus BMP-4 alone” value (from here on “SOST expression … with BMP-4 versus BMP-4 alone”) is “abolished the stimulatory effect”. Besides, the “SOST expression … with BMP-4 versus BMP-4 alone” value in the data set with SOST expression [2] (listed as dexamethasone) is on record as “abolished the stimulatory effect; also recorded: significantly suppressed; also recorded: depressed”. For the same molecule, in the data set on gremlin expression, the “BMP-4 induced gremlin expression, steroid added with BMP-4” value was “diminished” and the “gremlin expression, factor alone” value is reported as “decreased”. Further, the “noggin expression, factor alone” value in the data set with noggin expression is listed as “increase”. For the same molecule, the PTHr expression entry with PTHr expression is “induced”.
Regarding `CC1=C(/C=C/C(C)=C/C=C/C(C)=C/C(=O)O)C(C)(C)CCC1` [retinoic acid, reference compound], the “SOST expression, factor alone” value in the data set on SOST expression [2] was “no effect”.
With `C=C1/C(=C\C=C2/CCC[C@]3(C)[C@@H]([C@H](C)CCCC(C)(C)O)CC[C@@H]23)C[C@@H](O)C[C@@H]1O` [vitamin D, 1,25-dihydroxyvitamin D3, reference compound], in the data set with SOST expression [2], the “SOST expression, factor alone” value is “no effect” and the “SOST expression … with BMP-4 versus BMP-4 alone” value was “enhanced”. In the data set on gremlin expression, the “BMP-4 induced gremlin expression, steroid added with BMP-4” value is “did not alter” and the “gremlin expression, factor alone” value is “unchanged”. Moreover, the “noggin expression, factor alone” value with noggin expression is on record as “increase”.
As to IGF-1: insulin-like growth factor-1, the “SOST expression, factor alone” value in the data set with SOST expression [2] is on record as “enhanced”. In the data set on PTHr expression, the PTHr expression entry is on record as “induced”.
Take TGF-β: transforming growth factor-β: in the data set with SOST expression [2], the “SOST expression, factor alone” value is recorded as “no effect”.

B1: BMP-4: bone morphogenetic protein 4, purchased from R & D Systems (protein, UniProt P12644 293-408, looked up)
Bone morphogenetic protein 4: SPKHHSQRARKKNKNCRRHSLYVDFSDVGWNDWIVAPPGYQAFYCHGDCPFPLADHLNSTNHAIVQTLVNSVNSSIPKACCVPTELSAISMLYLDEYDKVVLKNYQEMVVEGCGCR
In the case of B1, the “SOST expression, factor alone” value with SOST expression [2] is listed as “enhanced; also recorded: up-regulated; also recorded: significantly increased”. The “gremlin expression, factor alone” value with gremlin expression was “only modestly increased; also recorded: enhanced”. For the same molecule, the “noggin expression, factor alone” value with noggin expression was “up-regulated; also recorded: enhanced; also recorded: increase”.

B2: PTH: parathyroid hormone (PTH), tested at 10^−8 M (peptide, UniProt P01270 32-115, looked up)
Parathyroid hormone: SVSEIQLMHNLGKHLNSMERVEWLRKKLQDVHNFVALGAPLAPRDAGSQRPRKKEDNVLVESHEKSLGEADKADVNVLTKAKSQ
modifications: Parathyroid hormone
notes: parathyroid hormone (PTH), tested at 10^−8 M
Regarding B2, the “SOST expression, factor alone” value in the data set with SOST expression [2] is listed as “no effect”.

B3: noggin: BMP antagonist protein (mouse noggin), purchased from R & D Systems (protein)
chain: QHYLHIRPAPSDNLPLVDLIEHPDPIFDPKEKDLNETLLRSLLGGHYDPGFMATSPPEDRPGGGGGPAGGAEDLAELDQLLRQRPSGAMPSEIKGLEFSEGLAQGKKQRLSKKLRRKLQMWLWSQTFCPVLYAWNDLGSRFWPRYVKVGSCFSKRSCSVPEGMVCKPSKSVHLTVLRWRCQRRGGQRCGWIPIQYPIISECKCSC
Regarding B3, the ALP activity result was “no effect” in [3] (protein at 1 μg/ml) and “significantly increased” in data set [3] (protein at 5 μg/ml). Moreover, the “stimulatory effect of BMP-6 on alkaline phosphatase activity (antagonism)” value in data set [4] (500 ng/ml BMP-6, 72 hrs) is reported as “antagonized”. The “IC50, decrease of BMP-6 stimulated alkaline phosphatase activity” value in [4] (pre-incubated with 500 ng/ml BMP-6 for 1 hr, 72 hrs) is 0.3 µg/mL. Further, in data set [5] (hMSC in osteoblast-inducing media, 20 μg/ml sclerostin or other protein, 24 hours), the caspase activity entry was “no increase; also recorded: no significant effect”.

B4: BMP-6: bone morphogenetic protein 6, purchased from R & D Systems (protein)
chain: QQSRNRSTQSQDVARVSSASDYNSSELKTACRKHELYVSFQDLGWQDWIIAPKGYAANYCDGECSFPLNAHMNATNHAIVQTLVHLMNPEYVPKPCCAPTKLNAISVLYFDDNSNVILKKYRNMVVRACGCH
As to B4, the “SOST expression, factor alone” value with SOST expression [2] is listed as “enhanced; also recorded: up-regulated”. For the same molecule, in the data set on gremlin expression, the “gremlin expression, factor alone” value is “only modestly increased”. In addition, the “noggin expression, factor alone” value with noggin expression is reported as “up-regulated”. Moreover, the “ALP activity, effect of BMP-6” value in [4] (72 hrs) is “increased in a dose-dependent manner; also recorded: stimulatory effect”. For the same molecule, in data set [6], the “reversal of the inhibitory effect of sclerostin on alkaline phosphatase” value is recorded as “partially reversed”.

B5: rat sclerostin: rat sclerostin protein (SEQ ID NO:8) (protein, listed as Rattus norvegicus)
chain: MQLSLAPCLACLLVHAAFVAVESQGWQAFKNDATEIIPGLREYPEPPQELENNQTMNRAENGGRPPHHPYDTKDVSEYSCRELHYTRFVTDGPCRSAKPVTELVCSGQCGPARLLPNAIGRVKWWRPNGPDFRCIPDRYRAQRVQLLCPGGAAPRSRKVRLVASCKCKRLTRFHNQSELKDFGPETARPQKGRKPRPRARGAKANQAELENAY
For B5, the results for the “apoptosis of hMSC cells (caspase activity), rat versus human sclerostin” value in data set [5] and in data set [5] (listed as Rat sclerostin) were “induced the apoptosis” and “increased the apoptosis of hMSC cells but to a lesser extent”, respectively.

(Values after patent publication US7655420B2, “Methods to increase or decrease bone density” (Celltech R & D, Inc., priority 2002, dated 2010).)
